Experimental data published in the supplement of paper PMC10307832.

Columns and labels:
Assay in all cases: relative viability (nuclei count vs DMSO), 5 days (fraction); higher = more cells survive
A-427 = tested on: A-427
Method in brief: (§1)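 A single step with final 0.05% Triton X-100, 1% formaldehyde and 1 ug/ml Hoechst fixed the cells and stained nuclei 5 days after treatment. Lung cancer cell lines in 1536-well plates had been treated by pin tool the day after seeding with one drug alone or a fixed anchor-drug dose plus five library-drug doses (not always all listed) in √10 steps, and nuclei were counted on 4× images. Relative viability is the ratio of nuclei in treated wells to nuclei in vehicle wells, taken as the median of duplicate plates.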

CAL-12T = tested on: CAL-12T
Method in brief: as §1

COR-L 105 = tested on: COR-L 105
Method in brief: as §1

EMC-BAC-2 = tested on: EMC-BAC-2
Method in brief: as §1

HARA = tested on: HARA
Method in brief: as §1

HCC-366 = tested on: HCC-366
Method in brief: as §1

HCC-827 = tested on: HCC-827
Method in brief: as §1

HOP-62 = tested on: HOP-62
Method in brief: as §1

LCLC-103H = tested on: LCLC-103H
Method in brief: as §1

NCI-H1355 = tested on: NCI-H1355
Method in brief: as §1

NCI-H1395 = tested on: NCI-H1395
Method in brief: as §1

NCI-H1437 = tested on: NCI-H1437
Method in brief: as §1

NCI-H1755 = tested on: NCI-H1755
Method in brief: as §1

NCI-H1792 = tested on: NCI-H1792
Method in brief: as §1

NCI-H1915 = tested on: NCI-H1915
Method in brief: as §1

NCI-H1975 = tested on: NCI-H1975
Method in brief: as §1

NCI-H2009 = tested on: NCI-H2009
Method in brief: as §1

NCI-H2228 = tested on: NCI-H2228
Method in brief: as §1

NCI-H23 = tested on: NCI-H23
Method in brief: as §1

NCI-H460 = tested on: NCI-H460
Method in brief: as §1

SK-LU-1 = tested on: SK-LU-1
Method in brief: as §1

SW 1573 = tested on: SW 1573
Method in brief: as §1

With `CC1(C)CCC(c2ccc(Cl)cc2)=C(CN2CCN(c3ccc(C(=O)NS(=O)(=O)c4ccc(N[C@H](CCN5CCOCC5)CSc5ccccc5)c(S(=O)(=O)C(F)(F)F)c4)cc3)CC2)C1` [Navitoclax] + Nc1nc2[nH]cc(CCc3ccc(C(=O)N[C@@H](CCC(=O)O)C(=O)O)cc3)c2c(=O)[nH]1 [Pemetrexed] (partner 0.2 µM) the relative viability (A-427; first compound 0.005 µM) was 1.01, the relative viability (A-427; first compound 0.01581 µM) was 0.896 and the relative viability (A-427; first compound 0.05 µM) was 0.968. For the same compound, the relative viability (A-427; first compound 0.1581 µM) was 1.14, the relative viability (A-427; first compound 0.5 µM) was 1.04 and the relative viability (CAL-12T; first compound 0.005 µM) was 1.23. The relative viability (CAL-12T; first compound 0.01581 µM) was 1.34, the relative viability (CAL-12T; first compound 0.05 µM) was 1.23 and the relative viability (CAL-12T; first compound 0.1581 µM) was 1.23. It also gave a relative viability (CAL-12T; first compound 0.5 µM) of 1.25, a relative viability (COR-L 105; first compound 0.005 µM) of 0.979 and a relative viability (COR-L 105; first compound 0.01581 µM) of 1.35. It also gave a relative viability (COR-L 105; first compound 0.05 µM) of 0.921, a relative viability (COR-L 105; first compound 0.1581 µM) of 1.13 and a relative viability (COR-L 105; first compound 0.5 µM) of 1.17. It also gave a relative viability (EMC-BAC-2; first compound 0.005 µM) of 0.433, a relative viability (EMC-BAC-2; first compound 0.01581 µM) of 0.437 and a relative viability (EMC-BAC-2; first compound 0.05 µM) of 0.408. The relative viability (EMC-BAC-2; first compound 0.1581 µM) was 0.423, the relative viability (EMC-BAC-2; first compound 0.5 µM) was 0.419 and the relative viability (HARA; first compound 0.005 µM) was 0.189. For the same compound, the relative viability (HARA; first compound 0.01581 µM) was 0.232, the relative viability (HARA; first compound 0.05 µM) was 0.255 and the relative viability (HARA; first compound 0.1581 µM) was 0.236. It also gave a relative viability (HARA; first compound 0.5 µM) of 0.218, a relative viability (HCC-366; first compound 0.005 µM) of 0.136 and a relative viability (HCC-366; first compound 0.01581 µM) of 0.167. It also gave a relative viability (HCC-366; first compound 0.1581 µM) of 0.175, a relative viability (HCC-366; first compound 0.5 µM) of 0.145 and a relative viability (HCC-827; first compound 0.005 µM) of 0.27. It also gave a relative viability (HCC-827; first compound 0.01581 µM) of 0.261, a relative viability (HCC-827; first compound 0.05 µM) of 0.252 and a relative viability (HCC-827; first compound 0.1581 µM) of 0.23. For the same compound, the relative viability (HCC-827; first compound 0.5 µM) was 0.258, the relative viability (HOP-62; first compound 0.005 µM) was 0.326 and the relative viability (HOP-62; first compound 0.01581 µM) was 0.299. It also gave a relative viability (HOP-62; first compound 0.05 µM) of 0.323, a relative viability (HOP-62; first compound 0.1581 µM) of 0.27 and a relative viability (HOP-62; first compound 0.5 µM) of 0.27. For the same compound, the relative viability (LCLC-103H; first compound 0.005 µM) was 0.473, the relative viability (LCLC-103H; first compound 0.01581 µM) was 0.425 and the relative viability (LCLC-103H; first compound 0.05 µM) was 0.401. For the same compound, the relative viability (LCLC-103H; first compound 0.1581 µM) was 0.442, the relative viability (LCLC-103H; first compound 0.5 µM) was 0.368 and the relative viability (NCI-H1355; first compound 0.005 µM) was 0.998. For the same compound, the relative viability (NCI-H1355; first compound 0.01581 µM) was 1.05, the relative viability (NCI-H1355; first compound 0.05 µM) was 1.11 and the relative viability (NCI-H1355; first compound 0.1581 µM) was 1.03. The relative viability (NCI-H1355; first compound 0.5 µM) was 1.07, the relative viability (NCI-H1395; first compound 0.005 µM) was 0.763 and the relative viability (NCI-H1395; first compound 0.01581 µM) was 0.853. It also gave a relative viability (NCI-H1395; first compound 0.05 µM) of 0.94, a relative viability (NCI-H1395; first compound 0.1581 µM) of 0.86 and a relative viability (NCI-H1395; first compound 0.5 µM) of 0.913. For the same compound, the relative viability (NCI-H1437; first compound 0.005 µM) was 0.287, the relative viability (NCI-H1437; first compound 0.01581 µM) was 0.336 and the relative viability (NCI-H1437; first compound 0.05 µM) was 0.282. The relative viability (NCI-H1437; first compound 0.1581 µM) was 0.311, the relative viability (NCI-H1437; first compound 0.5 µM) was 0.356 and the relative viability (NCI-H1755; first compound 0.005 µM) was 0.371. For the same compound, the relative viability (NCI-H1755; first compound 0.01581 µM) was 0.419, the relative viability (NCI-H1755; first compound 0.05 µM) was 0.426 and the relative viability (NCI-H1755; first compound 0.1581 µM) was 0.351. For the same compound, the relative viability (NCI-H1755; first compound 0.5 µM) was 0.433, the relative viability (NCI-H1792; first compound 0.005 µM) was 0.917 and the relative viability (NCI-H1792; first compound 0.01581 µM) was 0.82. For the same compound, the relative viability (NCI-H1792; first compound 0.1581 µM) was 0.716, the relative viability (NCI-H1792; first compound 0.5 µM) was 0.738 and the relative viability (NCI-H1915; first compound 0.005 µM) was 0.495. For the same compound, the relative viability (NCI-H1915; first compound 0.01581 µM) was 0.504, the relative viability (NCI-H1915; first compound 0.05 µM) was 0.571 and the relative viability (NCI-H1915; first compound 0.1581 µM) was 0.439. It also gave a relative viability (NCI-H1915; first compound 0.5 µM) of 0.401, a relative viability (NCI-H1975; first compound 0.005 µM) of 0.292 and a relative viability (NCI-H1975; first compound 0.01581 µM) of 0.312. It also gave a relative viability (NCI-H1975; first compound 0.05 µM) of 0.343, a relative viability (NCI-H1975; first compound 0.1581 µM) of 0.301 and a relative viability (NCI-H1975; first compound 0.5 µM) of 0.299. The relative viability (NCI-H2009; first compound 0.005 µM) was 0.997, the relative viability (NCI-H2009; first compound 0.01581 µM) was 1.03 and the relative viability (NCI-H2009; first compound 0.05 µM) was 1.03. The relative viability (NCI-H2009; first compound 0.1581 µM) was 1.04, the relative viability (NCI-H2009; first compound 0.5 µM) was 1.01 and the relative viability (NCI-H2228; first compound 0.005 µM) was 0.314. The relative viability (NCI-H2228; first compound 0.01581 µM) was 0.306, the relative viability (NCI-H2228; first compound 0.1581 µM) was 0.336 and the relative viability (NCI-H2228; first compound 0.5 µM) was 0.31. It also gave a relative viability (NCI-H23; first compound 0.005 µM) of 0.594, a relative viability (NCI-H23; first compound 0.01581 µM) of 0.665 and a relative viability (NCI-H23; first compound 0.05 µM) of 0.707. It also gave a relative viability (NCI-H23; first compound 0.1581 µM) of 0.603, a relative viability (NCI-H23; first compound 0.5 µM) of 0.645 and a relative viability (NCI-H460; first compound 0.005 µM) of 0.0632. For the same compound, the relative viability (NCI-H460; first compound 0.01581 µM) was 0.067, the relative viability (NCI-H460; first compound 0.05 µM) was 0.0532 and the relative viability (NCI-H460; first compound 0.1581 µM) was 0.059. The relative viability (NCI-H460; first compound 0.5 µM) was 0.0583, the relative viability (SK-LU-1; first compound 0.005 µM) was 0.945 and the relative viability (SK-LU-1; first compound 0.01581 µM) was 1.01. For the same compound, the relative viability (SK-LU-1; first compound 0.05 µM) was 0.967, the relative viability (SK-LU-1; first compound 0.1581 µM) was 0.947 and the relative viability (SK-LU-1; first compound 0.5 µM) was 0.819. It also gave a relative viability (SW 1573; first compound 0.005 µM) of 0.925, a relative viability (SW 1573; first compound 0.01581 µM) of 0.773 and a relative viability (SW 1573; first compound 0.05 µM) of 0.787. The relative viability (SW 1573; first compound 0.1581 µM) was 0.751 and the relative viability (SW 1573; first compound 0.5 µM) was 0.801.
